Results taken from ChEMBL document CHEMBL1156195, “Antimicrobial selaginellin derivatives from Selaginella pulvinata” (Bioorg Med Chem Lett, 2010).
In brackets after ≈: the same amount, converted by molar mass. Activity calls are given as the source filed them. The rule behind the calls is not given here.

What was measured:
[1] = test system: Candida albicans; test: Antifungal activity against Candida albicans; type: functional, organism-based
[2] = test system: Staphylococcus aureus; test: Antibacterial activity against Staphylococcus aureus; type: functional, organism-based

## Clc1ccc(COC(Cn2ccnc2)c2ccc(Cl)cc2Cl)c(Cl)c1.O=[N+]([O-])O (centres undefined) [MICONAZOLE NITRATE]
[1]
  IC50: < 1.2 µg/mL

## CCOc1ccc(C(=C2C=CC(=O)C=C2)c2c(-c3ccc(O)cc3)ccc(CO)c2C#Cc2ccc(O)cc2)cc1 [SELAGINELLIN D]
[2]
  IC50: Not Active
  MIC: inactive
[1]
  IC50: 5.3 µg/mL (≈ 9.8 µM)
